{"source": "patent US20100222322A1", "about": "“Non-Nucleoside Reverse Transcriptase Inhibitors” (MERCK & CO., INC., priority 2005, published 2010)", "key": {"[1]": {"target": "T1, mutant HIV reverse transcriptase with the K103N mutation (Human immunodeficiency virus type 1 group M subtype B, UniProt P04585, K690N)", "T1 construct": "mutations that occur in the reverse transcriptase segment of the pol gene; made in house", "assay": "Analogous RT inhibition assay, K103N mutant", "assay_type": "biochemical", "procedure": "(§1) 100 μL reaction mixtures were initiated with a combination of primer-template substrate (10 nM final concentration) and dNTPs (0.6 μM dNTPs, 0.75 μM [^3H]-dGTP). The heterodimeric nucleic acid substrate was generated by annealing the DNA primer pD500 (described in Shaw-Reid et al., J. Biol. Chem., 278: 2777-2780; obtained from Integrated DNA Technologies) to t500, a 500 nucleotide RNA template created by in vitro transcription (see Shaw-Reid et al., J. Biol. Chem., 278: 2777-2780). After 1 hour incubation at 37° C., reactions were quenched by 10 μL streptavidin scintillation proximity assay beads (10 mg/mL, from Amersham Biosciences) in 0.5 M EDTA, pH 8. Microtiter plates were incubated an additional 10 minutes at 37° C. prior to quantification via Topcount (Packard).\n(§2) Analogous assays were conducted substituting mutant HIV strains to determine the […] inhibition of compounds of the present invention against mutant HIV reverse transcriptase. In one strain the reverse transcriptase has the Y181C mutation and in the other strain the reverse transcriptase has the K103N mutation. The mutations were generated with the […] site-directed mutagenesis kit (Stratagene). […] The compounds set forth in the other Examples were not tested in the Y181C assay. […] The compounds set forth in the other Examples were not tested in the K103N assay."}, "[2]": {"target": "T2, mutant HIV reverse transcriptase with the Y181C mutation (Human immunodeficiency virus type 1 group M subtype B, UniProt P04585, Y768C)", "T2 construct": "mutations that occur in the reverse transcriptase segment of the pol gene; made in house", "assay": "Analogous RT inhibition assay, Y181C mutant", "assay_type": "biochemical", "procedure": "as §1, §2"}, "[3]": {"test_system": "HIV replication in T-lymphoid cells", "assay": "Spread assay: inhibition of acute HIV infection of T-lymphoid cells", "assay_type": "cell-based", "settings": "read-out: IC95, spread assay (inhibition of HIV replication)", "procedure": "An assay for the inhibition of acute HIV infection of T-lymphoid cells (alternatively referred to herein as the “spread assay”) was conducted in accordance with Vacca, J. P. et al., Proc. Natl. Acad. Sci. USA 1994, 91: 4096. […] The compounds of Examples 26, 29, 30, 33-35 and 62 were tested in the spread assay up to 10 micromolar, but specific IC95 values were not obtained; i.e., the IC95 values were greater than 10 micromolar. The compounds of Examples 47 and 61 were not tested."}, "[4]": {"settings": "RT with K103N mutation, tested up to 20 micromolar, read-out: IC50, K103N mutant assay"}, "[5]": {"settings": "RT with Y181C mutation, tested up to 20 micromolar, read-out: IC50, Y181C mutant assay"}, "[6]": {"settings": "Human immunodeficiency virus 1, acute HIV infection of T-lymphoid cells, tested up to 10 micromolar"}}, "note": "Read-outs that look alike come from different tables or passages of the source."}
{"compound": "O=C(NCCO)c1[nH]c2ccc(Br)cc2c1S(=O)(=O)N1CCCCC1", "note": "[Example 31, 5-bromo-N-(2-hydroxyethyl)-3-(piperidin-1-ylsulfonyl)-1H-indole-2-carboxamide]", "values": [{"measurement": "IC50", "setting": "[1]", "value": "> 20000", "unit": "nM"}, {"measurement": "IC50", "setting": "[2]", "value": "< 1000", "unit": "nM"}, {"measurement": "IC95", "setting": "[3]; Human immunodeficiency virus 1, T-lymphoid", "value": "< 1000", "unit": "nM"}]}
{"compound": "NC(=O)c1[nH]c2ccc(Br)cc2c1S(=O)(=O)N1CCCCC1", "note": "[Example 13, 5-bromo-3-(piperidin-1-ylsulfonyl)-1H-indole-2-carboxamide]", "values": [{"measurement": "IC50", "setting": "[1]; [4]", "value": "1000 to 20000", "unit": "nM"}, {"measurement": "IC50", "setting": "[2]; [5]", "value": "< 1000", "unit": "nM"}, {"measurement": "IC95", "setting": "[3]; [6]", "value": "< 1000", "unit": "nM"}]}
{"compound": "N#Cc1ccc2[nH]c(C(N)=O)c(S(=O)(=O)N3CCCC3)c2c1", "note": "[Example 68, 5-Cyano-3-(pyrrolidin-1-ylsulfonyl)-1H-indole-2-carboxamide]", "values": [{"measurement": "IC50", "setting": "[1]; [4]", "value": "1000 to 20000", "unit": "nM"}, {"measurement": "IC50", "setting": "[2]; [5]", "value": "> 20000", "unit": "nM"}, {"measurement": "IC95", "setting": "[3]; [6]", "value": "< 1000", "unit": "nM"}]}
{"compound": "NC(=O)c1[nH]c2ccc(Cl)cc2c1S(=O)(=O)NC1CCCCC1", "note": "[Example 2, 5-chloro-3-[(cyclohexylamino)sulfonyl]-1H-indole-2-carboxamide]", "values": [{"measurement": "IC50", "setting": "[1]", "value": "> 20000", "unit": "nM"}, {"measurement": "IC50", "setting": "[2]", "value": "< 1000", "unit": "nM"}, {"measurement": "IC95", "setting": "[3]; [6]", "value": "< 1000", "unit": "nM"}]}
